The values below come from patent US20260062443A1 (ALEXION PHARMACEUTICALS, INC., priority 2022, published 2026).

The experiment has as its target T1, Human complement C1s enzyme (Homo sapiens, UniProt P09871).
T1 sequence (P09871 438-688 limits assumed): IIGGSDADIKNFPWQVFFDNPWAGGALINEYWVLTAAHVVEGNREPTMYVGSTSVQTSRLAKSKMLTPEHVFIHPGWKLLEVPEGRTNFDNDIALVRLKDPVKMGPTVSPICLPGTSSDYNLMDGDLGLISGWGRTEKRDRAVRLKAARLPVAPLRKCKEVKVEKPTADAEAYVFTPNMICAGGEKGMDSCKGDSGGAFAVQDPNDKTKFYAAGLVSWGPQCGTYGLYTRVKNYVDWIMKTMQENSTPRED
T1 sequence (P09871 16-437 partner limits assumed): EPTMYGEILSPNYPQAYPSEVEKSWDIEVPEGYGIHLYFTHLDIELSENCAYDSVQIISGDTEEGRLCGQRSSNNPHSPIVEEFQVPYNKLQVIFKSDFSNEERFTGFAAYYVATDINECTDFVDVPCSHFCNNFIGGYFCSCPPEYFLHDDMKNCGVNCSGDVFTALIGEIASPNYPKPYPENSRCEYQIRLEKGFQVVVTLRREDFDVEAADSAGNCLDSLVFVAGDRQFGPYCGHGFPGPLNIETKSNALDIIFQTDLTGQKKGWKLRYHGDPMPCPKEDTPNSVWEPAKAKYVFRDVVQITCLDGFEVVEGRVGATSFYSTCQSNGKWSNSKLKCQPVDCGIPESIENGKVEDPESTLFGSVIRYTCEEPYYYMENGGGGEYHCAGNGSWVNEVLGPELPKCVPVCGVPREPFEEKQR
The experiment in a line: Human C1s enzyme assay. As to conditions: human complement C1s enzyme 1.16 nM, substrate Z-L-Lys-SBzl 100 μM, 5 min preincubation; read-out: IC50 (Stars), C1s Inhibiting Activity. It counts as biochemical. Put shortly: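 Serum-purified human C1s (1.16 nM final) preincubated 5 min at room temperature with compound in 50 mM Tris, 1 M NaCl, pH 7.5. Z-L-Lys-SBzl and DTNB added at 100 μM each; A405 followed every 30 s for 30 min, and IC50 obtained by nonlinear regression of reaction rates.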

`CC(C)c1ccc(Oc2cccc(C(=O)NCC(=O)N3C[C@H](OC(F)F)C[C@H]3C(=O)NCc3cc4cnccc4[nH]3)c2)cc1` [Compound 215, (2S,4R)-N-((1H-pyrrolo[3,2-c]pyridin-2-yl)methyl)-4-(difluoromethoxy)-1-((3-(4-isopropylphenoxy)benzoyl)glycyl)pyrrolidine-2-carboxamide]: the half-inhibitory concentration (IC50) was less than 0.1 µM.
For the compound `C[C@@H](NC(=O)[C@@H]1C[C@](F)(Cn2ccnn2)CN1C(=O)CNC(=O)c1ccc2c(c1)Oc1ccccc1S2)c1cc2cnccc2[nH]1` [Compound 216, (2S,4R)-4-((1H-1,2,3-triazol-1-yl)methyl)-N-((R)-1-(1H-pyrrolo[3,2-c]pyridin-2-yl)ethyl)-4-fluoro-1-((phenoxathiine-3-carbonyl)glycyl)pyrrolidine-2-carboxamide], the concentration for half-maximal inhibition (IC50) is less than 0.1 µM.
With `C[C@@H](NC(=O)[C@@H]1C[C@](F)(Cn2ccnc2)CN1C(=O)CNC(=O)c1ccc2c(c1)Oc1ccccc1S2)c1cc2cnccc2[nH]1` [Compound 217, (2S,4S)-4-((1H-imidazol-1-yl)methyl)-N-((R)-1-(1H-pyrrolo[3,2-c]pyridin-2-yl)ethyl)-4-fluoro-1-((phenoxathiine-3-carbonyl)glycyl)pyrrolidine-2-carboxamide] the figure was less than 0.1 µM.
For the compound `O=C(NCC(=O)N1C[C@H](OC(F)F)C[C@H]1C(=O)NCc1cc2cnccc2[nH]1)c1ccc2oc3ccccc3c2c1` [Compound 218, (2S,4R)-N-((1H-pyrrolo[3,2-c]pyridin-2-yl)methyl)-1-((dibenzo[b,d]furan-2-carbonyl)glycyl)-4-(difluoromethoxy)pyrrolidine-2-carboxamide], the IC50 is less than 0.1 µM.
The figure for `C[C@@H](NC(=O)[C@@H]1C[C@@H](OC(F)F)CN1C(=O)CNC(=O)c1ccc2oc3ccccc3c2c1)c1cc2cnccc2[nH]1` [Compound 220, (2S,4R)-N-((R)-1-(1H-pyrrolo[3,2-c]pyridin-2-yl)ethyl)-1-((dibenzo[b,d]furan-2-carbonyl)glycyl)-4-(difluoromethoxy)pyrrolidine-2-carboxamide] is less than 0.1 µM; for `O=C(NCC(=O)N1C[C@H](OC(F)F)C[C@H]1C(=O)NCc1ccc2ncoc2c1)c1ccc2c(c1)Oc1ccccc1S2` [Compound 221, (2S,4R)-N-(benzo[d]oxazol-6-ylmethyl)-4-(difluoromethoxy)-1-((phenoxathiine-3-carbonyl)glycyl)pyrrolidine-2-carboxamide] it is more than 1 µM; for `O=C(NCC(=O)N1C[C@H](OC(F)F)C[C@H]1C(=O)NCc1ccc2scnc2c1)c1ccc2c(c1)Oc1ccccc1S2` [Compound 222, (2S,4R)-N-(benzo[d]thiazol-5-ylmethyl)-4-(difluoromethoxy)-1-((phenoxathiine-3-carbonyl)glycyl)pyrrolidine-2-carboxamide] it is more than 1 µM.
The figure for `O=C(NCC(=O)N1C[C@H](OC(F)F)C[C@H]1C(=O)NCc1ccc2c(c1)CCNC2)c1ccc2c(c1)Oc1ccccc1S2` [Compound 223, (2S,4R)-4-(difluoromethoxy)-1-((phenoxathiine-3-carbonyl)glycyl)-N-((1,2,3,4-tetrahydroisoquinolin-6-yl)methyl)pyrrolidine-2-carboxamide] is 0.1 to 1 µM; for `O=C(NCC(=O)N1C[C@H](OC(F)F)C[C@H]1C(=O)NCc1ccn2cnnc2c1)c1ccc2c(c1)Oc1ccccc1S2` [Compound 224, (2S,4R)-N-([1,2,4]triazolo[4,3-a]pyridin-7-ylmethyl)-4-(difluoromethoxy)-1-((phenoxathiine-3-carbonyl)glycyl)pyrrolidine-2-carboxamide] it is more than 1 µM; for `O=C(NCC(=O)N1C[C@H](OC(F)F)C[C@H]1C(=O)NCc1ccc2nncn2c1)c1ccc2c(c1)Oc1ccccc1S2` [Compound 225, (2S,4R)-N-([1,2,4]triazolo[4,3-a]pyridin-6-ylmethyl)-4-(difluoromethoxy)-1-((phenoxathiine-3-carbonyl)glycyl)pyrrolidine-2-carboxamide] it is more than 1 µM.
As to `O=C(NCC(=O)N1C[C@H](OC(F)F)C[C@H]1C(=O)NCc1ccc2c(c1)CNCC2)c1ccc2c(c1)Oc1ccccc1S2` [Compound 226, (2S,4R)-4-(difluoromethoxy)-1-((phenoxathiine-3-carbonyl)glycyl)-N-((1,2,3,4-tetrahydroisoquinolin-7-yl)methyl)pyrrolidine-2-carboxamide], the IC50 is more than 1 µM.
The figure for `O=C(NCC(=O)N1C[C@H](OC(F)F)C[C@H]1C(=O)NCc1ccc2[nH]ncc2n1)c1ccc2c(c1)Oc1ccccc1S2` [Compound 227, (2S,4R)-N-((1H-pyrazolo[4,3-b]pyridin-5-yl)methyl)-4-(difluoromethoxy)-1-((phenoxathiine-3-carbonyl)glycyl)pyrrolidine-2-carboxamide] is more than 1 µM; for `O=C(NCC(=O)N1C[C@H](OC(F)F)C[C@H]1C(=O)NCc1ccc2c(c1)CNC2)c1ccc2c(c1)Oc1ccccc1S2` [Compound 228, (2S,4R)-4-(difluoromethoxy)-N-(isoindolin-5-ylmethyl)-1-((phenoxathiine-3-carbonyl)glycyl)pyrrolidine-2-carboxamide] it is less than 0.1 µM; for `O=C(NCC(=O)N1C[C@H](OC(F)F)C[C@H]1C(=O)NCc1ccc2cc[nH]c2n1)c1ccc2c(c1)Oc1ccccc1S2` [Compound 229, (2S,4R)-N-((1H-pyrrolo[2,3-b]pyridin-6-yl)methyl)-4-(difluoromethoxy)-1-((phenoxathiine-3-carbonyl)glycyl)pyrrolidine-2-carboxamide] it is more than 1 µM.
For the compound `O=C(NCC(=O)N1C[C@H](OC(F)F)C[C@H]1C(=O)NCc1ccc2[nH]ccc2n1)c1ccc2c(c1)Oc1ccccc1S2` [Compound 230, (2S,4R)-N-((1H-pyrrolo[3,2-b]pyridin-5-yl)methyl)-4-(difluoromethoxy)-1-((phenoxathiine-3-carbonyl)glycyl)pyrrolidine-2-carboxamide], the IC50 was more than 1 µM.
The figure for `C[C@@H](NC(=O)[C@@H]1C[C@]2(C)C[C@@H]2N1C(=O)CNC(=O)c1ccc2c(c1)Oc1ccccc1S2)c1cc2cnccc2s1` [Compound 231, (1S,3S,5S)-5-methyl-2-((phenoxathiine-3-carbonyl)glycyl)-N-((R)-1-(thieno[3,2-c]pyridin-2-yl)ethyl)-2-azabicyclo[3.1.0]hexane-3-carboxamide] is less than 0.1 µM.
As for `Nc1noc2cc(CNC(=O)[C@@H]3C[C@@H](OC(F)F)CN3C(=O)CNC(=O)c3ccc4c(c3)Oc3ccccc3S4)ccc12` [Compound 232, (2S,4R)-N-((3-aminobenzo[d]isoxazol-6-yl)methyl)-4-(difluoromethoxy)-1-((phenoxathiine-3-carbonyl)glycyl)pyrrolidine-2-carboxamide], the IC50 is more than 1 µM.
`O=C(NCC(=O)N1C[C@H](OC(F)F)C[C@H]1C(=O)NCc1ccc2nccn2c1)c1ccc2c(c1)Oc1ccccc1S2` [Compound 233, (2S,4R)-4-(difluoromethoxy)-N-(imidazo[1,2-a]pyridin-6-ylmethyl)-1-((phenoxathiine-3-carbonyl)glycyl)pyrrolidine-2-carboxamide]: the IC50 is more than 1 µM.
For `C[C@@H](NC(=O)[C@@H]1CC2(CCCCC2)CN1C(=O)CNC(=O)c1ccc2c(c1)Oc1ccccc1S2)c1cc2cnccc2[nH]1` [Compound 234, (S)-N-((R)-1-(1H-pyrrolo[3,2-c]pyridin-2-yl)ethyl)-2-((phenoxathiine-3-carbonyl)glycyl)-2-azaspiro[4.5]decane-3-carboxamide], the IC50 is less than 0.1 µM.
The figure for `O=C(NCC(=O)N1C[C@H](OC(F)F)C[C@H]1C(=O)NCc1cc2cnccc2s1)c1cccc(Oc2ccccc2)c1` [Compound 235, (2S,4R)-4-(difluoromethoxy)-1-((3-phenoxybenzoyl)glycyl)-N-(thieno[3,2-c]pyridin-2-ylmethyl)pyrrolidine-2-carboxamide] is less than 0.1 µM; for `O=C(NCC(=O)N1C[C@H](OC(F)F)C[C@H]1C(=O)NCc1ccc2cnccc2c1)c1ccc2c(c1)Oc1ccccc1S2` [Compound 236, (2S,4R)-4-(difluoromethoxy)-N-(isoquinolin-6-ylmethyl)-1-((phenoxathiine-3-carbonyl)glycyl)pyrrolidine-2-carboxamide] it is more than 1 µM; for `O=C(NCC(=O)N1C[C@H](OC(F)F)C[C@H]1C(=O)NCc1ccn2ccnc2c1)c1ccc2c(c1)Oc1ccccc1S2` [Compound 237, (2S,4R)-4-(difluoromethoxy)-N-(imidazo[1,2-a]pyridin-7-ylmethyl)-1-((phenoxathiine-3-carbonyl)glycyl)pyrrolidine-2-carboxamide] it is more than 1 µM.
With `C[C@@H](NC(=O)[C@@H]1C[C@@H](S(C)(=O)=O)CN1C(=O)CNC(=O)c1ccc2c(c1)Oc1ccccc1S2)c1cc2cnccc2[nH]1` [Compound 238, (2S,4R)-N-((R)-1-(1H-pyrrolo[3,2-c]pyridin-2-yl)ethyl)-4-(methylsulfonyl)-1-((phenoxathiine-3-carbonyl)glycyl)pyrrolidine-2-carboxamide] the figure was less than 0.1 µM.
